Here are results for 5 molecules from PMC8705904, “Structural Bases for Hesperetin Derivatives: Inhibition of Protein Tyrosine Phosphatase 1B, Kinetics Mechanism and Molecular Docking Study” (Molecules, 2021).

In experiment [1] the target is T1, PTP1B (human recombinant) (Homo sapiens, UniProt P18031).
T1 construct: purchased Biomol International LP (Plymouth Meeting, PA, USA)
T1 sequence (P18031 1-435): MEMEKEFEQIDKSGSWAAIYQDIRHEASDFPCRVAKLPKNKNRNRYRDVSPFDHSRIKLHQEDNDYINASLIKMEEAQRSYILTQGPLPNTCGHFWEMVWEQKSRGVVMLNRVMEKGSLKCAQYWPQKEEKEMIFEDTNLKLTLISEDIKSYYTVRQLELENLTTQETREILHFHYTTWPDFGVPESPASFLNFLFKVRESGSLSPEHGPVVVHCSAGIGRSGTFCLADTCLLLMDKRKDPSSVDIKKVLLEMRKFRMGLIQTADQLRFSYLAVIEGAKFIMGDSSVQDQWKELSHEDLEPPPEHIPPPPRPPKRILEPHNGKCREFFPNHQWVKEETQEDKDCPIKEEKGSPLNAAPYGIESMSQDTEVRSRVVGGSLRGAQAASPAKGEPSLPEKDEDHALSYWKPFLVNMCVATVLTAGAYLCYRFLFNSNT
The experiment is described as follows: Kinetic analysis of PTP1B inhibition (Lineweaver–Burk and Dixon plots). The experiment is classed as biochemical. Conditions: for Ki: determined by Dixon plots; for PTP1B type of inhibition: determined by Lineweaver–Burk plots, pNPP 0.5, 1.0 and 2.0 mM. On the procedure: (§1) The PTP1B inhibitory activity was evaluated using pNPP according to the work of Jung et al.. In each well of a 96-well plate (each with a final volume of 100 µL), 40 µL of PTP1B enzyme [0.5 units diluted with a PTP1B reaction buffer containing 50 mM citrate (pH 6.0), 0.1 M NaCl, 1 mM EDTA, and 1 mM DTT] was added with or without the sample dissolved in 10% DMSO. The plate was preincubated at 37 °C for 10 min and then 50 µL of 2 mM pNPP in the PTP1B reaction buffer was added. Following incubation at 37 °C for 20 min, the reaction was terminated by the addition of 10 M NaOH. […] The inhibition percentage was obtained using the following equation: % inhibition = (Ac − As)/Ac × 100, where Ac is the absorbance of the control and As is the absorbance of the sample.
To determine the kinetic mechanism, two kinetic methods using Lineweaver–Burk and Dixon plots were complementarily used. […] The enzymatic inhibitions of the test flavonoids were evaluated by monitoring the effects of different concentrations of the […] in the Dixon plots (single reciprocal plot). The enzymatic procedure consisted of the same, aforementioned, PTP1B assay method. The inhibition constants (Ki) were determined by interpretation of the Dixon plots, where the value of the x-axis implies -Ki.

Experiment [2] deals with T1, PTP1B (human recombinant). The experiment is described as follows: PTP1B inhibitory assay using pNPP. Conditions: for IC50: mean ± S.E.M of triplicate experiments, substrate pNPP. The experiment is classed as biochemical. On the procedure: as §1

On to `COc1ccc(C2CC(=O)c3c(cc(O)cc3OC3OC(CO)C(O)C(O)C3O)O2)cc1O` (stereo not drawn) [Hesperetin 5-O-glucoside], for which, in experiment [1], the Ki is 81.6 µM and the “PTP1B type of inhibition” value is on record as “Mixed”. Moreover, the “PTP1B type of inhibition” value in experiment [1] (listed as hesperetin 5-O-glucoside) is “mixed-type inhibition”. Also, in experiment [2], the IC50 turned out to be 37.14 ± 0.07 µM.
In the case of `COc1ccc(C2CC(=O)c3c(O)cc(OC4OC(CO)C(O)C(O)C4O)cc3O2)cc1O` (stereo not drawn) [Hesperetin 7-O-glucoside], in experiment [2], the “PTP1B inhibitory activity (in words)” value is “inactive” and the IC50 is above 300 µM.
For `COc1ccc([C@@H]2CC(=O)c3c(O)cc(O)cc3O2)cc1O` [Hesperetin], in experiment [1], the Ki came to 295 µM and the “PTP1B type of inhibition” value is reported as “Uncompetitive”. For the same molecule, the “PTP1B type of inhibition” value in experiment [1] (listed as hesperetin) was “uncompetitive-type inhibition”. In addition, the IC50 in experiment [2] amounted to 288 ± 7.98 µM.
`COc1ccc(C2CC(=O)c3c(O)cc(OC4OC(COC5OC(C)C(O)C(O)C5O)C(O)C(O)C4O)cc3O2)cc1O` (stereo not drawn) [Hesperidin, hesperetin 7-O-rutinoside]: in experiment [1], the Ki was found to be 50 µM and the “PTP1B type of inhibition” value was “Mixed”. The “PTP1B type of inhibition” value in experiment [1] (listed as hesperidin) was “mixed-type inhibition”. The half-maximal inhibitory concentration (IC50) in experiment [2] worked out at 58.1 ± 4.18 µM.
As to `COc1ccc(C2CC(=O)c3c(O)cc(OC4OC(CO)C(O)C(O)C4OC4OC(C)C(O)C(O)C4O)cc3O2)cc1O` (stereo not drawn) [Neohesperidin, hesperetin 7-O-neohesperidoside], in experiment [1], the Ki turned out to be 154 µM and the “PTP1B type of inhibition” value is “Uncompetitive”. Moreover, the “PTP1B type of inhibition” value in experiment [1] (listed as neohesperidin) was “uncompetitive-type inhibition”. Besides, the IC50 in experiment [2] was 144 ± 3.04 µM.

A word on the Ki: it is the dissociation constant of the complex between target and ligand, obtained from inhibition or displacement. Usually IC50 stands for the concentration needed to halve the response being measured.
